PMC9961069 (Metabolites, 2023)

What was measured:
[1] = system: T1, DHFR in MDA-MB-468 lysates; assay: Lysate cellular thermal shift assay (CETSA) for DHFR; format: binding, Human; conditions: 10 μM, MDA-MB-468 lysate, 45 °C for 3 min, DMSO at 37 °C = 100%
T1 construct: reactions containing 55 μg MDA-MB-468 lysate; endogenous in cells; host or cells: MDA-MB-468
Procedure: Trypsinized MDA-MB-468 cells were harvested by centrifugation at 200× g for 5 min and washed with PBS supplemented with EDTA-free PIC (Roche) and flash frozen for storage at −80 °C. Cells were lysed by resuspension in 60 μL PBS/PIC per 1 × 10^6 cells. Cells were lysed by three freeze-thaw cycles, where cells were frozen in an ethanol/dry ice bath for 3 min, immediately followed by incubation in a 37 °C water bath for 3 min. The insoluble fraction was removed by centrifugation at 20,000× g for 20 min at 4 °C. The supernatant containing the soluble lysate was removed and saved for subsequent steps.
After incubation, each reaction was transferred to a 1.5 mL tube and centrifuged at 20,000× g for 20 min at 4 °C to remove the insoluble proteins. After centrifugation, 18 μL of supernatant was carefully removed from each reaction, without disturbing any pelleted aggregates, and added to 4.5 μL of 5× SDS-PAGE loading buffer. 11 μL of each reaction was loaded onto a gel in duplicate, and proteins were detected by Western blot (as described below). Resulting band densities were fit to the Boltzmann equation to determine the melting temperature (Tm):(3) y=Bottom+Top−Bottom/1+e^Tm−x/Slope
To rescue the thermal degradation of DHFR by inhibitors, samples containing 10 μM inhibitor, 55 μg lysate, and 1% DMSO in a total volume of 28 μL in DHFR buffer were prepared in PCR tubes and incubated at room temperature for 20 min. Two DMSO-only controls were also prepared. Reactions containing inhibitors were then incubated at 45 °C for 3 min. One DMSO-only control was also heated at 45 °C for 3 min, and the other control was heated at 37 °C for 3 min. The soluble protein fraction was separated from the insoluble proteins by centrifugation, and proteins were separated by SDS-PAGE, as described above, and analyzed via Western blot, as described below. Each experiment was repeated 3 times.
Proteins were electrophoretically separated on a 10% gel, and proteins were transferred to a methanol-activated PVDF membrane using the Trans-Blot Turbo transfer system (Bio-Rad) for 7 min at 1.3 A and 25 V in Trans-Blot Turbo transfer buffer (Bio-Rad). Membranes were blocked with 5% skim milk w/v in TBS-T (20 mM Tris, 150 mM NaCl, 0.05% Tween-20) for 1 h at room temperature. […] The horseradish peroxidase (HRP)-linked anti-mouse IgG secondary antibody (NA931, Cytiva; 1:3000) was added for 1 h at room temperature in 5% skim milk w/v in TBS-T. Signal was detected by adding Immobilon Forte Western HRP Substrate (Millipore), and chemiluminescence was captured on a Sapphire Biomolecular Imager (Azure Biosystems). Band densities were determined using ImageJ (Fiji). The band intensity of DHFR was normalized to the thermostable loading control SOD1 [22].

MDA-MB-468 cells = assay: Resazurin viability assay with or without folinic acid, MDA-MB-468; format: cell-based, Human; conditions: 72 h; for Rescue of viability impairment by folinic acid: MDA-MB-468, 10 μM ± 300 μg/mL FA
Procedure: (§1) The incorporation and metabolism of resazurin to resorufin was used to monitor cell viability. MDA-MB-468, MCF7, and MDA-MB-231 cells were grown in 96-well plates with a total of 5000 cells per well in a total volume of 180 μL for 24 h, as described above. After 24 h of growth, cells were treated with increasing concentrations of compounds (0.0457–100 μM) for 72 h. A vehicle control was also performed. […] The volume of treatment added to each well was 20 μL. For folinic acid rescue experiments, 5000 cells were treated with 10 μM compound with or without 300 μg/mL folinic acid (Supelco). After 72 h of treatment, resazurin was added to a final concentration of 44 μM, and cells were incubated for an additional 4 h at 37 °C. The fluorescence of resorufin was monitored on a Synergy MX microplate reader (BioTek) using an excitation wavelength of 540 nm and an emission wavelength of 600 nm. Percent viability relative to the DMSO control was determined. Each treatment was performed in triplicate, and each individual experiment was repeated three times (n = 3).

[2] = system: T2, thymidine phosphorylase (TP) in MDA-MB-468 cell lysates; assay: Lysate CETSA for thymidine phosphorylase; format: binding, Human; conditions: 10 μM, 65 °C, n = 1
T2 construct: MDA-MB-468 lysates were treated with 10 μM each; endogenous in cells; host or cells: MDA-MB-468

MCF-7 cells = assay: Resazurin viability assay with or without folinic acid, MCF-7; format: cell-based, Human; conditions: 72 h
Procedure: as §1

[3] = system: MDA-MB468, MDA-MB-231, and MCF-7 breast cancer cell lines; assay: Dose-response viability in breast cancer cell lines (statements not split by line); format: cell-based, Human; conditions: 0–100 μM, 72 h
Procedure: as §1

leukemia = system: leukemia; parameters: method as in PMID 5479856, PMID 5479852, PMID 5241406; conditions: early studies in the 1970s; cited from earlier work

Structure (SMILES)	Normalized Band Density (%) of soluble DHFR [1]	Normalized Band Density (%) of soluble DHFR ([1]; listed as Cycloguanil) [%]	Rescue of viability impairment by folinic acid (MDA-MB-468 cells)	Normalized Band Density (%) of soluble DHFR ([1]; listed as Pyrimethamine) [%]	TP stabilization by CETSA [2]	Relative Viability (%) – Inhibitor + FA Treatment (MCF-7 cells; MCF-7, 10 μM + 300 μg/mL folinic acid) [%]	Relative Viability (%) – Inhibitor Alone (MCF-7 cells; MCF-7, 10 μM, relative to DMSO) [%]	Relative Viability (%) – Inhibitor + FA Treatment (MDA-MB-468 cells; MDA-MB-468, 10 μM + 300 μg/mL folinic acid) [%]	Relative Viability (%) – Inhibitor Alone (MDA-MB-468 cells; MDA-MB-468, 10 μM, relative to DMSO) [%]	Phenotypic response in viability dose-response [3]	Anti-leukemic activity in vivo (leukemia)
CC1(C)N=C(N)N=C(N)N1c1ccc(Cl)cc1 [Cyc, Cycloguanil]	greater than 100%	125.67 ± 39.6									
CCc1nc(N)nc(N)c1-c1ccc(Cl)cc1 [Pyr, Pyrimethamine]	greater than 100%		statistically significant rescue	104.12 ± 33.5	no stabilization of TP was detected						
CC1(C)N=C(N)N=C(N)N1c1ccc(CCCCc2ccc(S(=O)(=O)F)cc2)c(Cl)c1 [compound 127159]	99.96 ± 26.2%		rescued in all but MDA-MB-468 cells			99.99 ± 3.2	67.68 ± 13.3	77.23 ± 7.2	70.45 ± 7.8	little effect at low concentrations and cytotoxicity at higher concentrations	promising anti-leukemic activity in vivo
